Measured values reported in patent publication US12509457B2, “Bicyclic nitrogen containing heterocycles as inhibitors of salt-induced kinase SIK2” (priority 2019, dated 2025).
Where two headings read alike, the source gives them in different places.

Assays:
Type in all cases: biochemical
SIK2 = SIK2 (Homo sapiens, UniProt Q9H0K1); test: SIK2 kinase assay, IMAP fluorescence polarization
SIK1 = SIK1 (Homo sapiens, UniProt P57059); test: SIK1 kinase assay, IMAP fluorescence polarization
SIK3 = SIK3 (Homo sapiens, UniProt Q9Y2K2); test: SIK3 kinase assay, IMAP fluorescence polarization
Chain of SIK3 (Q9Y2K2 whole entry): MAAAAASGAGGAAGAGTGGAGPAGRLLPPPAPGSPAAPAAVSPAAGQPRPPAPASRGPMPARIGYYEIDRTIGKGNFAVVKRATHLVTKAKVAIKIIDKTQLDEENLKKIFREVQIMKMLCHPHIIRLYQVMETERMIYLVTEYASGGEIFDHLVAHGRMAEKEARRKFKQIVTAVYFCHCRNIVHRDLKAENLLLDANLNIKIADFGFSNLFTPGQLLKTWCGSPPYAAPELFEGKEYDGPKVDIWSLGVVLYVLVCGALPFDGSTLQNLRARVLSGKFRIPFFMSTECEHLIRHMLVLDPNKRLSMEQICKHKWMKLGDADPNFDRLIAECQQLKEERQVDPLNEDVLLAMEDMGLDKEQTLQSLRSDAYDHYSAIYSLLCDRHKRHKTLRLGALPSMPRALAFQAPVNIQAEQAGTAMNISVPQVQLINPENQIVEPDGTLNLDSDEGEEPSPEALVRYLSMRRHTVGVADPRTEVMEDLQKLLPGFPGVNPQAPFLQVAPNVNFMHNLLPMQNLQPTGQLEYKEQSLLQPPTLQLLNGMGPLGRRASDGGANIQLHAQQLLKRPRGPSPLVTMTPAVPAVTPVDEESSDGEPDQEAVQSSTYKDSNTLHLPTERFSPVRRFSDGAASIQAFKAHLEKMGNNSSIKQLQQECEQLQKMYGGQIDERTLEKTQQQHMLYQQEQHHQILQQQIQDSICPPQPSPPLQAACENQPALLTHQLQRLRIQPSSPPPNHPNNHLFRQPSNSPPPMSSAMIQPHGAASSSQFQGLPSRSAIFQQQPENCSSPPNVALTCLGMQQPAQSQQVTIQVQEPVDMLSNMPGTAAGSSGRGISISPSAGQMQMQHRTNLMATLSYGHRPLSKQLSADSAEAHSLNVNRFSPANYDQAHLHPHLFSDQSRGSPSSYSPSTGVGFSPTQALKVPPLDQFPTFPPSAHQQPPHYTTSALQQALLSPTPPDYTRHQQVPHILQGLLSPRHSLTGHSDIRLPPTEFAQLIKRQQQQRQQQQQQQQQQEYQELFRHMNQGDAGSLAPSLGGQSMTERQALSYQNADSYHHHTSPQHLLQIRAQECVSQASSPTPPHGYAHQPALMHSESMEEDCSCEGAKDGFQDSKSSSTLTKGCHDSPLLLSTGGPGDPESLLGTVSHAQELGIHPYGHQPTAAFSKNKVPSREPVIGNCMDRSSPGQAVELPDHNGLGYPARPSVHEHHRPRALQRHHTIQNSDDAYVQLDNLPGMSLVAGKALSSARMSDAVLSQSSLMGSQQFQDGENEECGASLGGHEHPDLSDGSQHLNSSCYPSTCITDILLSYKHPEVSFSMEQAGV

Abl = Abl (Homo sapiens, UniProt P00519); test: Abl kinase assay, IMAP fluorescence polarization
Chain of Abl (P00519 whole entry): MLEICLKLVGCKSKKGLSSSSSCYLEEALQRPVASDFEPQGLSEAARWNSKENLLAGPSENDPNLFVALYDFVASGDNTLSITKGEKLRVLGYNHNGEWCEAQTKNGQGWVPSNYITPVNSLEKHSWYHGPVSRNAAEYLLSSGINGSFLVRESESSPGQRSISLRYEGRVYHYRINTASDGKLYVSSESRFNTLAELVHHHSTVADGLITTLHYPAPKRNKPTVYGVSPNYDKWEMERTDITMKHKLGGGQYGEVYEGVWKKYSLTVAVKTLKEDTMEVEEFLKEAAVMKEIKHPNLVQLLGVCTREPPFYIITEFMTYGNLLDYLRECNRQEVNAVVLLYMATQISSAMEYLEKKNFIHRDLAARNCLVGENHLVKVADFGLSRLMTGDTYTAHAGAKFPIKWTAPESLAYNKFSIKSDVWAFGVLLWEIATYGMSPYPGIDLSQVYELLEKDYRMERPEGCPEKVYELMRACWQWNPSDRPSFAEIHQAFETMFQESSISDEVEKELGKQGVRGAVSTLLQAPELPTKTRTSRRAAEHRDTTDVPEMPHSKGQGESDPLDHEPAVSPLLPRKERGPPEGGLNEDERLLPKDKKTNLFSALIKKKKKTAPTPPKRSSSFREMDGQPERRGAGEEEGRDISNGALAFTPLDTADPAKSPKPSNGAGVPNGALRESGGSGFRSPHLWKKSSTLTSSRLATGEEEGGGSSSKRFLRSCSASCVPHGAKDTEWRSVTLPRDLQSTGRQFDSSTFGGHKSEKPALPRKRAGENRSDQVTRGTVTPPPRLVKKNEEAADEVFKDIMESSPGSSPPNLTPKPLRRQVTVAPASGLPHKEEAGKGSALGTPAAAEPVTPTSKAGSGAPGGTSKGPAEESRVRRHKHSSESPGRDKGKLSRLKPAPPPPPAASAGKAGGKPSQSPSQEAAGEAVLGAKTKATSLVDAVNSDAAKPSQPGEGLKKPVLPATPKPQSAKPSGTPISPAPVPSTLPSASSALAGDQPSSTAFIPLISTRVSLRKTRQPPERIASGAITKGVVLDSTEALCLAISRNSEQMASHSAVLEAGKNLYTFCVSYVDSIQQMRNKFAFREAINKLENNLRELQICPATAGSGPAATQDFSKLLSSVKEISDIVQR

Src = Src (Homo sapiens, UniProt P12931); test: Src kinase assay, IMAP fluorescence polarization
EPHA2 = EPHA2 (Homo sapiens, UniProt P29317); test: EPHA2 kinase assay, IMAP fluorescence polarization; conditions: 50 or 100 μM ATP; average
Chain of EPHA2 (P29317 24-976): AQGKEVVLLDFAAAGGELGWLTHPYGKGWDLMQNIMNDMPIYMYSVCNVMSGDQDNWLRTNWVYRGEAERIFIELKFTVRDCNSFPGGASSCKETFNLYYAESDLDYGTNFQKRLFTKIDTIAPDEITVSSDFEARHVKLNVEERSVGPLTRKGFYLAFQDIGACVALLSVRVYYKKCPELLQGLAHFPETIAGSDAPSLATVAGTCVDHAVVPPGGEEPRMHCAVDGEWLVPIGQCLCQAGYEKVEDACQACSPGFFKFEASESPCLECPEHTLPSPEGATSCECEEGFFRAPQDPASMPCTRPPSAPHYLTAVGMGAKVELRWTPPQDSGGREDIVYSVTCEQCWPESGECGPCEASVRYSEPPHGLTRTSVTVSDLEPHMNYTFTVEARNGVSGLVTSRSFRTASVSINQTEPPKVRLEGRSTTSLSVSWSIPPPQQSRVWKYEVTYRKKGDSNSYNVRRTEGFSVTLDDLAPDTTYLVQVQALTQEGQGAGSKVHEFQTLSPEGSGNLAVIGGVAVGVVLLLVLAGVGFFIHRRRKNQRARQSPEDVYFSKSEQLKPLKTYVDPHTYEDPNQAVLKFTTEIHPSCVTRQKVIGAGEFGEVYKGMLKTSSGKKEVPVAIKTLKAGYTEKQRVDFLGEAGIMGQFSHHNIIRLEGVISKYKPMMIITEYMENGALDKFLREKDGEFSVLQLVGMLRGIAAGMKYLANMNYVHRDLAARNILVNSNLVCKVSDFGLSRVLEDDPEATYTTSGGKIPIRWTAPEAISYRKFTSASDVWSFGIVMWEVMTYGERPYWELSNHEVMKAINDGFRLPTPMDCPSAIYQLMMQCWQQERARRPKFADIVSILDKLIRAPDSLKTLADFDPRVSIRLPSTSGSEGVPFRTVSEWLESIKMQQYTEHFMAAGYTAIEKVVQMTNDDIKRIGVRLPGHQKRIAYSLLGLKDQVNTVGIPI

[1] = 50 or 100 μM ATP, average, read-out: SIK2-AVERAGE Ki
[2] = 50 or 100 μM ATP, average, read-out: SIK1-AVERAGE Ki
[3] = 50 or 100 μM ATP, average, read-out: SIK3-AVERAGE Ki
[4] = 50 or 100 μM ATP, average, read-out: Abl-AVERAGE Ki
[5] = 50 or 100 μM ATP, average, read-out: Src-AVERAGE Ki

Chain of SIK2 (Q9H0K1 whole entry): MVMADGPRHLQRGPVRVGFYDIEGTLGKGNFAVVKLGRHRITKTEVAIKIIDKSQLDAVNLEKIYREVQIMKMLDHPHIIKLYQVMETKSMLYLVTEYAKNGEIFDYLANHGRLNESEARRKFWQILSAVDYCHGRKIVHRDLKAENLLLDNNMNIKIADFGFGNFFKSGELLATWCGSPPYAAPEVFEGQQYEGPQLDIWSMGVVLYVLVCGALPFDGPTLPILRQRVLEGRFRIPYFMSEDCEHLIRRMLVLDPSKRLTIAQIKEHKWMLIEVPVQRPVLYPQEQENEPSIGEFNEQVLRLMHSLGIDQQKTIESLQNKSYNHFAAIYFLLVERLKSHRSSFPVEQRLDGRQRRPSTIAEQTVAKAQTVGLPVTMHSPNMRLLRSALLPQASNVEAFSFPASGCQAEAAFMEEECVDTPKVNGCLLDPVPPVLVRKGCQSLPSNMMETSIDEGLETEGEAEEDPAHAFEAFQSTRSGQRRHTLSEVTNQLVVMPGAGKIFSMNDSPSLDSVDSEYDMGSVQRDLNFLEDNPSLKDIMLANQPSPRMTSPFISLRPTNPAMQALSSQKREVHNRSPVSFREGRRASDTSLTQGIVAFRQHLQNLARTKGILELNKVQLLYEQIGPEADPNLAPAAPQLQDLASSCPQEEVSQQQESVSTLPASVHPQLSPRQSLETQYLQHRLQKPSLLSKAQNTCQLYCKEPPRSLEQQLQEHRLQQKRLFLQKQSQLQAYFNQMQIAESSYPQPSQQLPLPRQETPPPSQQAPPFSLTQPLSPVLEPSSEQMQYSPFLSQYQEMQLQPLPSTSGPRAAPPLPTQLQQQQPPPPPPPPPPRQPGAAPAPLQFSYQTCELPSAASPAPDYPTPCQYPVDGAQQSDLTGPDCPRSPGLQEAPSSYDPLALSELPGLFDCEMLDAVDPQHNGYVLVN
Chain of SIK1 (P57059 whole entry): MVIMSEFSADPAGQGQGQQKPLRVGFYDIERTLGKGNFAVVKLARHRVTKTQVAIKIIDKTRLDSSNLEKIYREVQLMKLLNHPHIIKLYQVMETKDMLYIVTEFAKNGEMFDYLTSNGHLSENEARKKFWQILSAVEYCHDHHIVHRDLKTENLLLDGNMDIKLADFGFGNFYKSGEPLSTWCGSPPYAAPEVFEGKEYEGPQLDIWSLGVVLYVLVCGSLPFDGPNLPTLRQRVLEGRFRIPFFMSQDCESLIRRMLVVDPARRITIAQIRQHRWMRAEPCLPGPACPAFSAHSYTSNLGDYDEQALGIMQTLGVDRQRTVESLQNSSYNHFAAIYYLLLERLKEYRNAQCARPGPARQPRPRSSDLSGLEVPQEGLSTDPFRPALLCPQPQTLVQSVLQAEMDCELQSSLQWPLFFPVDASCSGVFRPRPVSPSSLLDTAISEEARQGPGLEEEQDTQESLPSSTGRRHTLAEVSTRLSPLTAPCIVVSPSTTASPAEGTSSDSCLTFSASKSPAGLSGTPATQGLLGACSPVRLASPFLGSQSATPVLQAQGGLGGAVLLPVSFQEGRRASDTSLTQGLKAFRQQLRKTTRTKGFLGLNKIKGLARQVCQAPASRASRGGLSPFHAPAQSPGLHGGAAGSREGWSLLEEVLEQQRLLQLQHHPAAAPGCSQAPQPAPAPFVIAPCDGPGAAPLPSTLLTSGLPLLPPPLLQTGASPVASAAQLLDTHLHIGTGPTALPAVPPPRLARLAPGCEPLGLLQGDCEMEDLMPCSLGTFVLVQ

Cc1cccc(F)c1N1Cc2cnc(N)nc2N([C@H]2CC[C@H](N)CC2)C1=O [Example 77, 7-amino-1-(4-aminocyclohexyl)-3-(2-fluoro-6-methyl-phenyl)-4H-pyrimido[4,5-d]pyrimidin-2-one]
Ki (SIK2; [1]): 0.222 nM | Ki (SIK1; [2]): 0.685 nM | Ki (SIK3; [3]): 0.739 nM | Ki (Abl; [4]): 27.7 nM | Ki (Src; [5]): 64.6 nM | Ki (EPHA2): 17.3 nM

Cc1cccc(F)c1N1Cc2cnc(N(C)C)cc2N([C@H]2CCC[C@@H](N(C)C)C2)C1=O (relative stereo) [Example 44, 7-(dimethylamino)-1-[cis-3-(dimethylamino)cyclohexyl]-3-(2-fluoro-6-methyl-phenyl)-4H-pyrido[4,3-d]pyrimidin-2-one]
Ki (SIK2; [1]): 123 nM | Ki (SIK1; [2]): 263 nM | Ki (SIK3; [3]): 1370 nM | Ki (Src; [5]): > 10000 nM | Ki (EPHA2): 6410 nM

Cc1cccc(F)c1N1Cc2cnc(N)nc2N([C@@H]2CCCCN(C)C2)C1=O [Example 38, 7-amino-3-(2-fluoro-6-methyl-phenyl)-1-[(3R)-1-methylazepan-3-yl]-4H-pyrimido[4,5-d]pyrimidin-2-one]
Ki (SIK2; [1]): 2.7 nM | Ki (SIK1; [2]): 9.57 nM | Ki (SIK3; [3]): 46.7 nM | Ki (Abl; [4]): 144 nM | Ki (Src; [5]): 678 nM | Ki (EPHA2): 188 nM

Cc1cccc(F)c1N1Cc2cnc(N)cc2N(C2CN(C)C2)C1=O [Example 5, 7-amino-3-(2-fluoro-6-methyl-phenyl)-1-(1-methylazetidin-3-yl)-4H-pyrido[4,3-d]pyrimidin-2-one]
Ki (SIK2; [1]): 13.6 nM | Ki (SIK1; [2]): 56 nM | Ki (SIK3; [3]): 124 nM | Ki (Abl; [4]): > 1000 nM | Ki (Src; [5]): > 1000 nM | Ki (EPHA2): > 1000 nM

Cc1cccc(Cl)c1N1Cc2cnccc2N(C2CCN(C)CC2)C1=O [Example 32, 3-(2-chloro-6-methyl-phenyl)-1-(1-methyl-4-piperidyl)-4H-pyrido[4,3-d]pyrimidin-2-one]
Ki (SIK2): 19.6 nM | Ki (SIK1): 14.7 nM | Ki (SIK3): 144 nM | Ki (Abl): > 10000 nM | Ki (Src): 514 nM

Cc1cccc(F)c1N1Cc2cnc(N)cc2N([C@H]2CCCNCC2)C1=O [Example 54, 7-amino-1-[(4S)-azepan-4-yl]-3-(2-fluoro-6-methyl-phenyl)-4H-pyrido[4,3-d]pyrimidin-2-one]
Ki (SIK2; [1]): 0.719 nM | Ki (SIK1; [2]): 2.08 nM | Ki (SIK3; [3]): 4.14 nM | Ki (Abl; [4]): 64.9 nM | Ki (Src; [5]): 423 nM | Ki (EPHA2): 213 nM

Cc1cccc(F)c1N1Cc2cnc(N)nc2N([C@@H]2CCCNC2)C1=O [Example 73, 7-amino-3-(2-fluoro-6-methyl-phenyl)-1-[(3R)-3-piperidyl]-4H-pyrimido[4,5-d]pyrimidin-2-one]
Ki (SIK2; [1]): 0.94 nM | Ki (SIK1; [2]): 1.3 nM | Ki (SIK3; [3]): 9.92 nM | Ki (Abl; [4]): 36.8 nM | Ki (Src; [5]): 77.2 nM | Ki (EPHA2): 56.6 nM

Cc1cccc(F)c1N1Cc2cnc(N)nc2N(C2CCNCC2)C1=O [Example 11, 7-Amino-3-(2-fluoro-6-methyl-phenyl)-1-(4-piperidyl)-4H-pyrimido[4,5-d]pyrimidin-2-one]
Ki (SIK2): 0.481 nM | Ki (SIK1): 2.36 nM | Ki (SIK3): 4.44 nM | Ki (Abl): 171 nM | Ki (Src): 464 nM

Cc1cccc(Cl)c1N1Cc2cnc(N)cc2N(C2CCN(C)CC2)C1=O [Example 7, 7-amino-3-(2-chloro-6-methyl-phenyl)-1-(1-methyl-4-piperidyl)-4H-pyrido[4,3-d]pyrimidin-2-one]
Ki (SIK2): 2.49 nM | Ki (SIK1): 3.21 nM | Ki (SIK3): 9.46 nM | Ki (Abl): 271 nM | Ki (Src): 263 nM

CCN1CCC(N2C(=O)N(c3c(C)cccc3F)Cc3cnc(N)nc32)CC1 [Example 20, 7-amino-1-(1-ethyl-4-piperidyl)-3-(2-fluoro-6-methyl-phenyl)-4H-pyrimido[4,5-d]pyrimidin-2-one]
Ki (SIK2): 0.803 nM | Ki (SIK1): 6.61 nM | Ki (SIK3): 7.18 nM | Ki (Abl): > 1000 nM | Ki (Src): > 1000 nM

Cc1cccc(F)c1N1Cc2cnccc2N(C2CCN(C)CC2)C1=O [Example 24, 3-(2-fluoro-6-methyl-phenyl)-1-(1-methyl-4-piperidyl)-4H-pyrido[4,3-d]pyrimidin-2-one]
Ki (SIK2): 8.97 nM | Ki (SIK1): 20.6 nM | Ki (SIK3): 24 nM | Ki (Abl): > 10000 nM | Ki (Src): 2250 nM

Cc1cccc(Cl)c1N1Cc2cncnc2N(C2CCN(C)CC2)C1=O [Example 28, 3-(2-chloro-6-methyl-phenyl)-1-(1-methyl-4-piperidyl)-4H-pyrimido[4,5-d]pyrimidin-2-one]
Ki (SIK2): 213 nM | Ki (SIK1): 397 nM | Ki (SIK3): 2220 nM | Ki (Abl): 6220 nM | Ki (Src): > 100000 nM

Cc1cccc(Cl)c1N1Cc2cncnc2N(C2CCNCC2)C1=O [Example 17, 3-(2-chloro-6-methyl-phenyl)-1-(4-piperidyl)-4H-pyrimido[4,5-d]pyrimidin-2-one]
Ki (SIK2): 128 nM | Ki (SIK1): 273 nM | Ki (SIK3): 1400 nM | Ki (Abl): 3950 nM | Ki (Src): > 100000 nM

CCN1CCC(N2C(=O)N(c3c(C)cccc3F)Cc3cnccc32)CC1 [Example 25, 1-(1-ethyl-4-piperidyl)-3-(2-fluoro-6-methyl-phenyl)-4H-pyrido[4,3-d]pyrimidin-2-one]
Ki (SIK2): 17 nM | Ki (SIK1): 33.2 nM | Ki (SIK3): 36.3 nM | Ki (Abl): > 10000 nM | Ki (Src): 2640 nM

Cc1cccc(F)c1N1Cc2cncnc2N(C2CCN(C)CC2)C1=O [Example 26, 3-(2-fluoro-6-methyl-phenyl)-1-(1-methyl-4-piperidyl)-4H-pyrimido[4,5-d]pyrimidin-2-one]
Ki (SIK2): 192 nM | Ki (SIK1): 586 nM | Ki (SIK3): 895 nM | Ki (Abl): > 100000 nM | Ki (Src): > 100000 nM

CCN1CCC(N2C(=O)N(c3c(C)cccc3Cl)Cc3cncnc32)CC1 [Example 29, 3-(2-chloro-6-methyl-phenyl)-1-(1-ethyl-4-piperidyl)-4H-pyrimido[4,5-d]pyrimidin-2-one]
Ki (SIK2): 128 nM | Ki (SIK1): 207 nM | Ki (SIK3): 1700 nM | Ki (Abl): 6490 nM | Ki (Src): > 100000 nM

Cc1cccc(Cl)c1N1Cc2cnc(N)nc2N(C2CCNCC2)C1=O [Example 15, 7-Amino-3-(2-chloro-6-methyl-phenyl)-1-(4-piperidyl)-4H-pyrimido[4,5-d]pyrimidin-2-one]
Ki (SIK2): 1.63 nM | Ki (SIK1): 6.23 nM | Ki (SIK3): 18.7 nM | Ki (Abl): > 1000 nM | Ki (Src): 138 nM

CCN1CCC(N2C(=O)N(c3c(C)cccc3F)Cc3cncnc32)CC1 [Example 27, 1-(1-ethyl-4-piperidyl)-3-(2-fluoro-6-methyl-phenyl)-4H-pyrimido[4,5-d]pyrimidin-2-one]
Ki (SIK2): 210 nM | Ki (SIK1): 635 nM | Ki (SIK3): 956 nM | Ki (Abl): 4190 nM | Ki (Src): > 100000 nM

Cc1cccc(Cl)c1N1Cc2cnc(N)nc2N(C2CCN(C)CC2)C1=O [Example 22, 7-amino-3-(2-chloro-6-methyl-phenyl)-1-(1-methyl-4-piperidyl)-4H-pyrimido[4,5-d]pyrimidin-2-one]
Ki (SIK2): 3.07 nM | Ki (SIK1): 10.6 nM | Ki (SIK3): 27.8 nM | Ki (Abl): > 1000 nM | Ki (Src): 265 nM

CCN1CCC(N2C(=O)N(c3c(C)cccc3Cl)Cc3cnccc32)CC1 [Example 33, 3-(2-chloro-6-methyl-phenyl)-1-(1-ethyl-4-piperidyl)-4H-pyrido[4,3-d]pyrimidin-2-one]
Ki (SIK2): 20.3 nM | Ki (SIK1): 34.1 nM | Ki (SIK3): 213 nM | Ki (Abl): 4950 nM | Ki (Src): 1540 nM

Cc1cccc(F)c1N1Cc2cnccc2N(C2CCNCC2)C1=O [Example 18, 3-(2-Fluoro-6-methyl-phenyl)-1-(4-piperidyl)-4H-pyrido[4,3-d]pyrimidin-2-one]
Ki (SIK2): 8.2 nM | Ki (SIK1): 12 nM | Ki (SIK3): 21.2 nM | Ki (Abl): 512 nM | Ki (Src): 1900 nM

Cc1cccc(Cl)c1N1Cc2cnc(N)cc2N(C2CCNCC2)C1=O [Example 6, 7-amino-3-(2-chloro-6-methyl-phenyl)-1-(4-piperidyl)-4H-pyrido[4,3-d]pyrimidin-2-one]
Ki (SIK2): 3.09 nM | Ki (SIK1): 3.35 nM | Ki (SIK3): 10.8 nM | Ki (Abl): 108 nM | Ki (Src): 216 nM

Cc1cccc(F)c1N1Cc2cnc(N)cc2N(C2CCNCC2)C1=O [Example 1, 7-Amino-3-(2-fluoro-6-methyl-phenyl)-1-(4-piperidyl)-4H-pyrido[4,3-d]pyrimidin-2-one]
Ki (SIK2): 0.248 nM | Ki (SIK1): 1.68 nM | Ki (SIK3): 1.79 nM | Ki (Abl): > 1000 nM | Ki (Src): > 1000 nM

Cc1cccc(F)c1N1Cc2cnc(N)nc2N(C2CCN(C)CC2)C1=O [Example 19, 7-Amino-3-(2-fluoro-6-methyl-phenyl)-1-(1-methyl-4-piperidyl)-4H-pyrimido[4,5-d]pyrimidin-2-one]
Ki (SIK2): 0.739 nM | Ki (SIK1): 9.73 nM | Ki (SIK3): 4.12 nM | Ki (Abl): > 1000 nM | Ki (Src): > 1000 nM

Cc1cccc(Cl)c1N1Cc2cnccc2N(C2CCNCC2)C1=O [Example 66, 3-(2-chloro-6-methyl-phenyl)-1-(4-piperidyl)-4H-pyrido[4,3-d]pyrimidin-2-one]
Ki (SIK2): 13.2 nM | Ki (SIK1): 10.2 nM | Ki (SIK3): 98.8 nM | Ki (Abl): 621 nM | Ki (Src): 436 nM

Cc1cccc(F)c1N1Cc2cncnc2N(C2CCNCC2)C1=O [Example 16, 3-(2-fluoro-6-methyl-phenyl)-1-(4-piperidyl)-4H-pyrimido[4,5-d]pyrimidin-2-one]
Ki (SIK2): 92.2 nM | Ki (SIK1): 223 nM | Ki (SIK3): 489 nM | Ki (Abl): 4180 nM | Ki (Src): > 100000 nM

Cc1cccc(F)c1N1Cc2cnc(N)cc2N(C2CCN(C)CC2)C1=O [Example 3, 7-Amino-3-(2-fluoro-6-methyl-phenyl)-1-(1-methyl-4-piperidyl)-4H-pyrido[4,3-d]pyrimidin-2-one]
Ki (SIK2): 0.239 nM | Ki (SIK1): 0.632 nM | Ki (SIK3): 0.975 nM | Ki (Abl): 122 nM | Ki (Src): 387 nM
